In US20100267561A1, “HERBICIDAL PYRIDAZINONE DERIVATIVES” (priority 2007, published 2010):

Key:
Experiment in all cases: Test B pre-/postemergence plant response
Type in all cases: in vivo
kochia (Kochia scoparia) = details: for Kochia plant response rating: postemergence, 0-100 scale; for Plant response rating, Kochia: Postemergence
In short: (§1)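 Seeds were sown and sprayed preemergence, while plants at 2 to 18 cm (1- to 4-leaf stage) got postemergence sprays. Compounds were formulated in a non-phytotoxic solvent mixture with surfactant. After 13 to 15 days in a greenhouse, injury was rated visually against untreated controls, 0 (no effect) to 100 (complete control).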

corn (Zea mays) = system: corn (Zea mays)
In short: as §1

wild oat (Avena fatua) = system: wild oat (Avena fatua)
In short: as §1

[1] = system: yellow nutsedge (Cyperus esculentus)
In short: as §1

[2] = system: blackgrass (Alopecurus myosuroides); details: for Blackgrass plant response rating: 8 g ai/ha
In short: as §1

[3] = system: johnsongrass (Sorghum halepense)
In short: as §1

[4] = system: surinam grass (Brachiaria decumbens)
In short: as §1

[5] = system: Italian ryegrass (Lolium multiflorum)
In short: as §1

[6] = system: common ragweed (Ambrosia elation)
In short: as §1

[7] = system: morningglory (Ipomoea coccinea)
In short: as §1

[8] = system: bermudagrass (Cynodon dactylon); details: for Bermudagrass plant response rating: 8 g ai/ha
In short: as §1

[9] = system: giant foxtail (Setaria faberii)
In short: as §1

[10] = system: lambsquarters (Chenopodium album); details: for Lambsquarters plant response rating: postemergence, 0-100 scale; for Plant response rating, Lambsquarters: Postemergence
In short: as §1

[11] = system: eastern black (E.B.) nightshade (Solanum ptycanthum); details: Preemergence; for Nightshade, E. B. plant response rating: scale 0 to 100
In short: as §1

[12] = 62 g ai/ha, scale 0 to 100, 0 no effect, 100 complete control
[13] = 8 g ai/ha, postemergence, 0-100 scale
[14] = Postemergence, 16 g ai/ha, scale 0 to 100
[15] = Postemergence, 31 g ai/ha, scale 0 to 100
[16] = Postemergence, 62 g ai/ha, scale 0 to 100, 0 no effect, 100 complete control
[17] = Preemergence, 31 g ai/ha, scale 0 to 100 (0 no effect, 100 complete control)
[18] = Preemergence, 62 g ai/ha, 0 to 100 scale, 0 no effect, 100 complete control
[19] = Preemergence, 8 g ai/ha, scale 0 to 100
[20] = Preemergence, 16 g ai/ha, scale 0 to 100
[21] = 16 g ai/ha, postemergence, 0-100 scale
[22] = Preemergence, 16 g ai/ha, scale 0 to 100 (0 no effect, 100 complete control)

## CCc1cc(-c2ccc(C(F)(F)F)cc2)nn1-c1c(O)c(OC)nn(C)c1=O [Compound 66]
Kochia (Kochia scoparia); 8 g ai/ha
  Kochia plant response rating: 0
Kochia (Kochia scoparia); 16 g ai/ha
  Kochia plant response rating: 0
Kochia (Kochia scoparia); 31 g ai/ha, scale 0 to 100
  Plant response rating, Kochia: 0
Kochia (Kochia scoparia); [12]
  Plant response rating, Kochia: 0
Corn (Zea mays); [13]
  Corn plant response rating: 65
Corn (Zea mays); [14]
  Plant response rating, Corn: 75
Corn (Zea mays); [15]
  Plant response rating, Corn: 90
Corn (Zea mays); [16]
  Plant response rating, Corn: 100
Corn (Zea mays); [17]
  Plant response rating, Corn: 98
Corn (Zea mays); [18]
  Plant response rating, Corn: 100
Corn (Zea mays); [19]
  Corn plant response rating: 0
Corn (Zea mays); [20]
  Corn plant response rating: 70
Wild oat (Avena fatua); [13]
  Oat, Wild plant response rating: 95
Wild oat (Avena fatua); [21]
  Oat, Wild plant response rating: 100
Wild oat (Avena fatua); [15]
  Plant response rating, Oat, Wild: 100
Wild oat (Avena fatua); [16]
  Plant response rating, Oat, Wild: 100
Wild oat (Avena fatua); [17]
  Plant response rating, Oat, Wild: 95
Wild oat (Avena fatua); [18]
  Plant response rating, Oat, Wild: 100
Wild oat (Avena fatua); [19]
  Oat, Wild plant response rating: 90
Wild oat (Avena fatua); [20]
  Oat, Wild plant response rating: 95
[1]; [13]
  Nutsedge, Yellow plant response rating: 0
[1]; [21]
  Nutsedge, Yellow plant response rating: 0
[1]; [15]
  Plant response rating, Nutsedge, Yellow: 0
[1]; [16]
  Plant response rating, Nutsedge, Yellow: 0
[1]; [17]
  Plant response rating, Nutsedge, Yellow: 0
[1]; [18]
  Plant response rating, Nutsedge, Yellow: 100
[1]; [19]
  Nutsedge, Yellow plant response rating: 0
[1]; [20]
  Nutsedge, Yellow plant response rating: 0
[2]; postemergence, 0-100 scale
  Blackgrass plant response rating: 90
[2]; [14]
  Plant response rating, Blackgrass: 100
[2]; [15]
  Plant response rating, Blackgrass: 100
[2]; [16]
  Plant response rating, Blackgrass: 100
[2]; [22]
  Plant response rating, Blackgrass: 100
[2]; [17]
  Plant response rating, Blackgrass: 100
[2]; [18]
  Plant response rating, Blackgrass: 100
[2]; Preemergence, scale 0 to 100
  Blackgrass plant response rating: 90
[3]; [13]
  Johnsongrass plant response rating: 75
[3]; [21]
  Johnsongrass plant response rating: 100
[3]; [15]
  Plant response rating, Johnsongrass: 100
[3]; [16]
  Plant response rating, Johnsongrass: 100
[3]; [17]
  Plant response rating, Johnsongrass: 98
[3]; [18]
  Plant response rating, Johnsongrass: 100
[3]; [19]
  Johnsongrass plant response rating: 70
[3]; [20]
  Johnsongrass plant response rating: 95
[4]; [13]
  Surinam Grass plant response rating: 95
[4]; [21]
  Surinam Grass plant response rating: 98
[4]; [15]
  Plant response rating, Surinam Grass: 100
[4]; [16]
  Plant response rating, Surinam Grass: 100
[4]; [17]
  Plant response rating, Surinam Grass: 98
[4]; [18]
  Plant response rating, Surinam Grass: 98
[4]; [19]
  Surinam Grass plant response rating: 0
[4]; [20]
  Surinam Grass plant response rating: 80
[5]; [13]
  Ryegrass, Italian plant response rating: 60
[5]; [21]
  Ryegrass, Italian plant response rating: 100
[5]; [15]
  Plant response rating, Ryegrass, Italian: 100
[5]; [16]
  Plant response rating, Ryegrass, Italian: 100
[5]; [17]
  Plant response rating, Ryegrass, Italian: 100
[5]; [18]
  Plant response rating, Ryegrass, Italian: 100
[5]; [19]
  Ryegrass, Italian plant response rating: 100
[5]; [20]
  Ryegrass, Italian plant response rating: 100
[6]; [13]
  Ragweed plant response rating: 0
[6]; [21]
  Ragweed plant response rating: 0
[6]; [15]
  Plant response rating, Ragweed: 0
[6]; [16]
  Plant response rating, Ragweed: 0
[6]; [18]
  Plant response rating, Ragweed: 0
[6]; [19]
  Ragweed plant response rating: 0
[6]; [20]
  Ragweed plant response rating: 0
[7]; [13]
  Morningglory plant response rating: 0
[7]; [21]
  Morningglory plant response rating: 0
[7]; [15]
  Plant response rating, Morningglory: 0
[7]; [16]
  Plant response rating, Morningglory: 0
[7]; [17]
  Plant response rating, Morningglory: 0
[7]; [18]
  Plant response rating, Morningglory: 0
[7]; [19]
  Morningglory plant response rating: 0
[7]; [20]
  Morningglory plant response rating: 0
[8]; postemergence, 0-100 scale
  Bermudagrass plant response rating: 20
[8]; [14]
  Plant response rating, Bermudagrass: 98
[8]; [15]
  Plant response rating, Bermudagrass: 100
[8]; [16]
  Plant response rating, Bermudagrass: 100
[8]; Preemergence, scale 0 to 100 (0 no effect, 100 complete control)
  Bermudagrass plant response rating: 0
[8]; [22]
  Plant response rating, Bermudagrass: 85
[8]; [17]
  Plant response rating, Bermudagrass: 98
[8]; [18]
  Plant response rating, Bermudagrass: 100
[9]; [13]
  Foxtail, Giant plant response rating: 85
[9]; [14]
  Plant response rating, Foxtail, Giant: 98
[9]; [15]
  Plant response rating, Foxtail, Giant: 100
[9]; [16]
  Plant response rating, Foxtail, Giant: 100
[9]; [17]
  Plant response rating, Foxtail, Giant: 95
[9]; [18]
  Plant response rating, Foxtail, Giant: 95
[9]; [19]
  Foxtail, Giant plant response rating: 0
[9]; [20]
  Foxtail, Giant plant response rating: 45
[10]; 8 g ai/ha
  Lambsquarters plant response rating: 0
[10]; 16 g ai/ha
  Lambsquarters plant response rating: 0
[10]; 31 g ai/ha, scale 0 to 100
  Plant response rating, Lambsquarters: 0
[10]; [12]
  Plant response rating, Lambsquarters: 0
[11]; 31 g ai/ha, scale 0 to 100 (0 no effect, 100 complete control)
  Plant response rating, Nightshade, E. B.: 0
[11]; 62 g ai/ha, 0 to 100 scale, 0 no effect, 100 complete control
  Plant response rating, Nightshade, E. B.: 0
[11]; 8 g ai/ha
  Nightshade, E. B. plant response rating: 0
[11]; 16 g ai/ha
  Nightshade, E. B. plant response rating: 0
